The text below walks through data of patent publication US10689354B2, “Aminoazole derivative” (Teijin Pharma Limited, priority 2015, dated 2020).

The target of one test is T1, human androgen receptor (Homo sapiens, UniProt P10275).
T1 construct: expressed in transfected cells; host or cells: HEK293
T1 sequence (P10275 1-920): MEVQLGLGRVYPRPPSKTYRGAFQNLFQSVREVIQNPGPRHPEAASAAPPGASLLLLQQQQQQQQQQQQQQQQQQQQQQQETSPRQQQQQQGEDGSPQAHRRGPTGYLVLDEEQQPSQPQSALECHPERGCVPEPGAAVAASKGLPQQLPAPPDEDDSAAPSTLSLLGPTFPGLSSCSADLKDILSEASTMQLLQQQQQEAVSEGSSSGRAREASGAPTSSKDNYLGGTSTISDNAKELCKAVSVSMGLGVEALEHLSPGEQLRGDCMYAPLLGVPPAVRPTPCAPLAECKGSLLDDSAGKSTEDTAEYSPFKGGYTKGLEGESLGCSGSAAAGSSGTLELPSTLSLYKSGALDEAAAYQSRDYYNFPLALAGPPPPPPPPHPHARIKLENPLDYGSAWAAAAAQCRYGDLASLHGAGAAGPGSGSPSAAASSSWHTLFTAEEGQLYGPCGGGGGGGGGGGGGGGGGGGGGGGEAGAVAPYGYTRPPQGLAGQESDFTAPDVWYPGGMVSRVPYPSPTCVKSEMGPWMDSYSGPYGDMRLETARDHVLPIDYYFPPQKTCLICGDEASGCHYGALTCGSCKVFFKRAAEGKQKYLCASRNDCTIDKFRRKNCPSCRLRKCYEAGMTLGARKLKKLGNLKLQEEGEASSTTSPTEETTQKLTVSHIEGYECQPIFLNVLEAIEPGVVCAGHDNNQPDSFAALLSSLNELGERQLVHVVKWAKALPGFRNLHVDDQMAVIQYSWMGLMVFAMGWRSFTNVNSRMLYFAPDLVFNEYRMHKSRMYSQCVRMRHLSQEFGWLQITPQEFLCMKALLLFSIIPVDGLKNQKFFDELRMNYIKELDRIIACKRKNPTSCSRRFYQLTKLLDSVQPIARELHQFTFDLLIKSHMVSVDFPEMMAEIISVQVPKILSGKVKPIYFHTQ
The test is described as follows: Reporter assay of an androgen receptor responsive sequence (luciferase, transiently transfected HEK293 cells). It is filed as cell-based. To be noted: 24 hours incubation, relative to activity of 100 nM DHT, read-out: AR transcriptive activity (pEC50) (converted). Summed up:
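Agonism scored as pEC50, fitted by 4-parameter curve against the response to 100 nM DHT, from dual-luciferase readout after 24 h compound treatment. Cells were HEK293 co-transfected (3 h) with human AR expression vector, androgen-responsive firefly reporter and Renilla control, in charcoal-stripped serum.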

Test [1] deals with T2, androgen receptor (AR-LBD) (Rattus norvegicus, UniProt P15207).
T2 construct: 5 μL of 2×AR-LBD/Fluoromone AL Red Complex contained in the kit; purchased Invitrogen
T2 sequence (P15207 651-882 limits assumed): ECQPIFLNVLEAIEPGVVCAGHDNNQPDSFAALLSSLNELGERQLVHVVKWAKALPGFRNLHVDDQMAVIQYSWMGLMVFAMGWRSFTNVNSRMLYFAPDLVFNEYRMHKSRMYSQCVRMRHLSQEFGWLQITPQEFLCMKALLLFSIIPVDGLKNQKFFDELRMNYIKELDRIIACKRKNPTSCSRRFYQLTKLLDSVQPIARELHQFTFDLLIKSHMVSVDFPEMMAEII
The experiment in a line: Evaluation of androgen receptor affinity (PolarScreen Androgen Receptor Competitor Assay Kit, Red; fluorescence polarization). To be noted: 22° C. for 5 hours, relative to binding rate of 1 μM DHT, read-out: AR affinity (pEC50) (converted). An outline of the steps: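 Test compound and the 2× AR-LBD/Fluoromone AL Red complex were combined in duplicate wells. After reacting 5 h at 22° C, polarization was measured. pEC50 was derived by 4-parameter fitting, normalizing to binding obtained with 1 μM dihydrotestosterone.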
On the technique in general: Fluorescence polarisation rises when a labelled molecule tumbles more slowly, as on binding a larger partner.

Take `CCCCN(c1ccc(C#N)cc1)c1nc(C(=O)NS(C)(=O)=O)c(C)s1` [Compound 64, 2-(N-butyl-4-cyano-anilino)-5-methyl-N-methylsulfonyl-thiazole-4-carboxamide]: the results for the EC50 (at human androgen receptor; in test [1]) were 2510 nM and 251 nM, respectively.
The matching figures for `CCC(CC)CN(c1ccc(C#N)cc1)c1nc(C(=O)NS(C)(=O)=O)c(C)s1` [Compound 65, 2-[4-cyano-N-(2-ethylbutyl)anilino]-5-methyl-N-methylsulfonyl-thiazole-4-carboxamide]: more than 10000 nM and 126 nM.
The matching figures for `Cc1sc(N(CCC(C)C)c2ccc(C#N)cc2)nc1C(=O)NS(C)(=O)=O` [Compound 66, 2-(4-cyano-N-isopentyl-anilino)-5-methyl-N-methylsulfonyl-thiazole-4-carboxamide]: 794 nM and 79.4 nM.
Taken in the same sequence, the figures for `Cc1sc(N(Cc2cccc3ccccc23)c2ccc(C#N)cc2)nc1C(=O)NS(C)(=O)=O` [Compound 68, 2-[4-cyano-N-(1-naphthylmethyl)anilino]-5-methyl-N-methylsulfonyl-thiazole-4-carboxamide] were 794 nM and 50.1 nM.
`Cc1sc(N(Cc2ccccc2)c2ccc(C#N)cc2)nc1C(=O)NS(=O)(=O)C(F)F` [Compound 69, 2-(N-benzyl-4-cyano-anilino)-N-(difluoromethylsulfonyl)-5-methyl-thiazole-4-carboxamide]: the EC50 at human androgen receptor is 1260 nM; in test [1], 25.1 nM.
Taken in the same sequence, the figures for `Cc1sc(N(Cc2ccc(Cl)cc2F)c2ccc(C#N)cc2)nc1C(=O)NS(C)(=O)=O` [Compound 70, 2-[N-[(4-chloro-2-fluoro-phenyl)methyl]-4-cyano-anilino]-5-methyl-N-methylsulfonyl-thiazole-4-carboxamide] were 63.1 nM and 31.6 nM.
The matching figures for `CCCCCCN(c1ccc(C#N)cc1)c1nc(C(=O)NS(C)(=O)=O)c(C)s1` [Compound 75, 2-(4-cyano-N-hexyl-anilino)-5-methyl-N-methylsulfonyl-thiazole-4-carboxamide]: 398 nM and 31.6 nM.
Taken in the same sequence, the figures for `Cc1sc(N(CC23CC4CC(CC(C4)C2)C3)c2ccc(C#N)cc2)nc1C(=O)NS(C)(=O)=O` [Compound 76, 2-[N-(1-adamantylmethyl)-4-cyano-anilino]-5-methyl-N-methylsulfonyl-thiazole-4-carboxamide] were more than 10000 nM and 50.1 nM.
Regarding `Cc1sc(N(Cc2cccs2)c2ccc(C#N)cc2)nc1C(=O)NS(C)(=O)=O` [Compound 77, 2-[4-cyano-N-(2-thienylmethyl)anilino]-5-methyl-N-methylsulfonyl-thiazole-4-carboxamide], the EC50 on human androgen receptor was 631 nM; in test [1], 50.1 nM.
Taken in the same sequence, the figures for `Cc1sc(N(CCC2CCCC2)c2ccc(C#N)cc2)nc1C(=O)NS(C)(=O)=O` [Compound 78, 2-[4-cyano-N-(2-cyclopentylethyl)anilino]-5-methyl-N-methylsulfonyl-thiazole-4-carboxamide] were 158 nM and 25.1 nM.
In the case of `Cc1sc(N(Cc2ccccc2SC(F)F)c2ccc(C#N)cc2)nc1C(=O)NS(C)(=O)=O` [Compound 79, 2-[4-cyano-N-[[2-(difluoromethylsulfanyl)phenyl]methyl]anilino]-5-methyl-N-methylsulfonyl-thiazole-4-carboxamide], the EC50 at human androgen receptor was 50.1 nM; in test [1] it was 15.8 nM.
Taken in the same sequence, the figures for `Cc1sc(N(CCc2ccccc2F)c2ccc(C#N)cc2)nc1C(=O)NS(C)(=O)=O` [Compound 80, 2-[4-cyano-N-[2-(2-fluorophenyl)ethyl]anilino]-5-methyl-N-methylsulfonyl-thiazole-4-carboxamide] were more than 10000 nM and 316 nM.
Taken in the same sequence, the figures for `Cc1sc(N(CCc2ccc(F)cc2)c2ccc(C#N)cc2)nc1C(=O)NS(C)(=O)=O` [Compound 81, 2-[4-cyano-N-[2-(4-fluorophenyl)ethyl]anilino]-5-methyl-N-methylsulfonyl-thiazole-4-carboxamide] were 1580 nM and 158 nM.
The matching figures for `Cc1sc(N(Cc2cccc(Oc3ccccc3)c2)c2ccc(C#N)cc2)nc1C(=O)NS(C)(=O)=O` [Compound 82, 2-[4-cyano-N-[(3-phenoxyphenyl)methyl]anilino]-5-methyl-N-methylsulfonyl-thiazole-4-carboxamide]: more than 10000 nM and 79.4 nM.
On to `Cc1sc(N(CCc2cccc(F)c2)c2ccc(C#N)cc2)nc1C(=O)NS(C)(=O)=O` [Compound 83, 2-[4-cyano-N-[2-(3-fluorophenyl)ethyl]anilino]-5-methyl-N-methylsulfonyl-thiazole-4-carboxamide], for which the EC50 on human androgen receptor is 2510 nM; in test [1], 126 nM.
The matching figures for `Cc1sc(N(Cc2ccsc2)c2ccc(C#N)cc2)nc1C(=O)NS(C)(=O)=O` [Compound 85, 2-[4-cyano-N-(3-thienylmethyl)anilino]-5-methyl-N-methylsulfonyl-thiazole-4-carboxamide]: 316 nM and 200 nM.
The matching figures for `Cc1sc(N(Cc2ccoc2)c2ccc(C#N)cc2)nc1C(=O)NS(C)(=O)=O` [Compound 86, 2-[4-cyano-N-(3-furylmethyl)anilino]-5-methyl-N-methylsulfonyl-thiazole-4-carboxamide]: 1580 nM and 251 nM.
Taken in the same sequence, the figures for `Cc1sc(N(Cc2ccco2)c2ccc(C#N)cc2)nc1C(=O)NS(C)(=O)=O` [Compound 87, 2-[4-cyano-N-(2-furylmethyl)anilino]-5-methyl-N-methylsulfonyl-thiazole-4-carboxamide] were 1000 nM and 158 nM.
Regarding `Cc1sc(N(CCc2ccc3ccccc3c2)c2ccc(C#N)cc2)nc1C(=O)NS(C)(=O)=O` [Compound 88, 2-[4-cyano-N-[2-(2-naphthyl)ethyl]anilino]-5-methyl-N-methylsulfonyl-thiazole-4-carboxamide], the EC50 at human androgen receptor was more than 10000 nM; in test [1] it was 316 nM.
For `CCC(C)CN(c1ccc(C#N)cc1)c1nc(C(=O)NS(C)(=O)=O)c(C)s1` (stereo not drawn) [Compound 89, 2-[4-cyano-N-(2-methylbutyl)anilino]-5-methyl-N-methylsulfonyl-thiazole-4-carboxamide], the EC50 is more than 10000 nM on human androgen receptor and 501 nM in test [1].
Turning to `Cc1sc(N(CCC(C)(C)C)c2ccc(C#N)cc2)nc1C(=O)NS(C)(=O)=O` [Compound 90, 2-[4-cyano-N-(3,3-dimethylbutyl)anilino]-5-methyl-N-methylsulfonyl-thiazole-4-carboxamide], the EC50 is more than 10000 nM on human androgen receptor and 398 nM in test [1].
The matching figures for `Cc1sc(N(Cc2ccccc2)c2ccc(OC(F)F)cc2)nc1C(=O)NS(C)(=O)=O` [Compound 91, 2-[N-benzyl-4-(difluoromethoxy)anilino]-5-methyl-N-methylsulfonyl-thiazole-4-carboxamide]: 1580 nM and 100 nM.
The matching figures for `Cc1sc(N(Cc2ccc(C(F)F)cc2)c2ccc(C#N)cc2)nc1C(=O)NS(C)(=O)=O` [Compound 94, 2-[4-cyano-N-[[4-(difluoromethyl)phenyl]methyl]anilino]-5-methyl-N-methylsulfonyl-thiazole-4-carboxamide]: 25.1 nM and 39.8 nM.
As for `Cc1sc(N(Cc2cc(F)cc(F)c2)c2ccc(C#N)cc2)nc1C(=O)NS(C)(=O)=O` [Compound 96, 2-[4-cyano-N-[(3,5-difluorophenyl)methyl]anilino]-5-methyl-N-methylsulfonyl-thiazole-4-carboxamide], the EC50 at human androgen receptor was 100 nM; in test [1] it was 79.4 nM.
